Measurements reported in patent US11229618B2 (Amarin Pharmaceuticals Ireland Limited, priority 2012, dated 2022).

System: subjects with Age-Associated Memory Impairment
Assay: AAMI 6-week study: CDR computerized cognitive test battery
Type: in vivo, human
Conditions: for Quality of Episodic Secondary Memory, LS mean difference versus placebo: overall; for Self-Rated Contentment, treatment effects: p<0.001
Experimental: A single-center, 6-week, double-blind, randomizes, parallel-group, placebo-controlled, dose-ranging pilot study was performed to evaluate the efficacy, tolerability, and safety of >96% ethyl-EPA in subjects with subjective and objective memory impairment according to generally accepted criteria for Age-Associated Memory Impairment (“AAMI”). The primary objective of the study was to determine the effect of >96% ethyl-EPA 1 g, 2 g, and 4 g daily, compared to placebo, on cognitive performance in subjects with AAMI.
Ninety-four subjects were randomized into one of six groups: 1 g E-EPA daily (n=23), 2 g E-EPA daily (n=24), 4 g E-EPA daily (n=24), 1 g placebo daily (n=7), 2 g placebo daily (n=8), and 4 g placebo daily (n=8). E-EPA was provided as 500 mg soft gel capsules containing>96% E-EPA and 0.2% dl-α-tocopherol as an antioxidant. Placebo capsules contained 467 mg of liquid paraffin and 0.2% dl-α-tocopherol. Ninety-one subjects completed the study. Two subjects in the 2 g E-EPA group and one subject in the 2 g placebo group discontinued the study.
The study consisted of a screening visit, a training visit, and four study visits. At the screening visit, subjects' eligibility was determined through cognitive tests (verbal paired associated learning [PAL] subscale, vocabulary subtest, Memory Assessment Clinics Questionnaire [MAC-Q], mini mental state evaluation [MMSE] and MINI [mini international neuropsychiatric interview; sections 1 and 2 of Diagnostic and Statistical Manual of Mental Disorders, 4th Edition (DSM-IV) plus dysthymia]), haematology, clinical chemistry and 12-lead electrocardiogram (ECG). At the training visit, subjects were shown how to use the CDR computerized system. Subjects took study drug for 6 weeks and on Days 0, 14, 28 and 42, subjects underwent the CDR cognitive test battery.
A selection of tasks from the CDR computerized cognitive assessment system were administered at Visit 2 (training visit), Visit 3 (baseline), Visit 4 (Day 14), Visit 5 (Day 28) and Visit 6 (Day 42). Parallel forms of the tests were presented at each testing session. All tasks were computer-controlled, the information presented on high resolution monitors, and the responses recorded via a response model containing two buttons: one marked ‘no’ and the other ‘yes’. Five CDR composite scores were used as the primary/secondary outcome variables. The task titles were: • Word Presentation • Immediate Word Recall • Picture Presentation • Simple Reaction Time • Digit Vigilance • Choice Reaction Time • Spatial Working Memory • Numeric Working Memory • Delayed Word Recall • Word Recognition • Picture Recognition • Bond-Lader Visual Analogue Scales of Mood and Alertness • Screen, Using the Computer Mouse
Difference from baseline data for each major variable was evaluated by an Analysis of Covariance (“ANCOVA”) using SAS® PROC MIXED Version 8.2. Fixed effects for treatment, day, time point, treatment by day, treatment by time point, treatment by day by time-point were fitted. Subject within treatment was fitted as a repeated effect using the repeated statement. The compound symmetry covariance structure was used. Subjects' time-matched predose assessments on Day 0 were used as a covariate in the analysis.
Least squares means (LS means) were calculated for treatment by day, treatment by time-point and treatment by day by time-point interaction. This formal analysis was conducted for the ITT and Study PP Populations separately.
A post-hoc analysis compared the individual placebo groups (1 g, 2 g and 4 g paraffin oil) with the corresponding ethyl-EPA doses.

[1] = post-hoc analysis, 1 g, Days 14 and 28

Structure (SMILES): CC/C=C\C/C=C\C/C=C\C/C=C\C/C=C\CCCC(=O)OCC [IPE, all-cis eicosa-5,8,11,14,17-pentaenoic acid ethyl ester]
- Continuity of Attention, effect of treatment (ITT): no statistically significant effect of treatment
- Quality of Episodic Secondary Memory, effect of treatment (ITT): no statistically significant effect of treatment
- Self-Rated Alertness, effect of treatment (ITT): no statistically significant effect of treatment
- Self-Rated Calmness, effect of treatment (ITT): no statistically significant effect of treatment
- Self-Rated Contentment, LS mean difference to placebo (ITT): no statistically significant effects
- Speed of Memory and contributing subtasks, effect of treatment (ITT): no statistically significant effects of treatment
- Power of Attention, effect of treatment (ITT, 1, 2, 4 g daily vs placebo): no statistically significant effect of treatment
- Immediate Word Recall Accuracy, LS mean difference versus placebo (ITT, 1 g, AM 1, p=0.040): statistically significant decreases
- Immediate Word Recall Accuracy, LS mean difference versus placebo (ITT, 1 g, Day 14, p=0.028): statistically significant decreases
- Picture Recognition Speed versus placebo (ITT, 1 g, Day 14 at AM 2, p=0.084): trends for benefits
- Immediate Word Recall Accuracy, LS mean difference versus placebo (ITT, 1 g, Day 14 at PM 2, p=0.020): statistically significant decreases
- Word Recognition Sensitivity Index, LS mean difference versus placebo (ITT, 1 g, Day 28, p=0.024): statistically significant decreases
- Picture Recognition Speed versus placebo (ITT, 1 g, Day 28 at AM 1, p=0.085): trends for benefits
- Picture Recognition Sensitivity Index, LS mean difference versus placebo (ITT, 1 g, Day 28 at AM 2, p=0.017): statistically significant decrease
- Picture Recognition Sensitivity Index, LS mean difference versus placebo (ITT, 1 g, Day 28 at PM 2, p=0.040): statistically significant decrease
- Quality of Episodic Secondary Memory, LS mean difference versus placebo (ITT, 1 g, p=0.040): statistically significant decreases
- Immediate Word Recall Accuracy, LS mean difference versus placebo (ITT, 2 g, AM 1, p=0.028): statistically significant decreases
- Immediate Word Recall Accuracy, LS mean difference versus placebo (ITT, 2 g, Day 28, p=0.017): statistically significant decreases
- Self-Rated Alertness, LS mean difference versus placebo (ITT, 2 g, Day 28, p=0.047): statistically significant decrease in ratings
- Immediate Word Recall Accuracy, LS mean difference versus placebo (ITT, 2 g, Day 28 at AM 1, p=0.006): statistically significant decreases
- Self-Rated Alertness, LS mean difference versus placebo (ITT, 2 g, Day 28 at AM 2, p=0.041): statistically significant decrease in ratings
- Quality of Episodic Secondary Memory, LS mean difference versus placebo (ITT, 2 g, p=0.035): statistically significant decreases
- Spatial Working Memory Speed, LS mean difference versus placebo (ITT, 4 g, Day 14 at PM 1, p=0.048): statistically significant benefit
- Word Recognition Sensitivity Index, LS mean difference versus placebo (ITT, 4 g, Day 28 at PM 2, p=0.030): statistically significant decrease
- Word Recognition Sensitivity Index, LS mean difference versus placebo (ITT, 4 g, Day 42, p=0.038): statistically significant decreases
- Spatial Working Memory Speed, LS mean difference versus placebo (ITT, 4 g, Day 42 at AM 1, p=0.061): trend for a benefit
- Word Recognition Sensitivity Index, LS mean difference versus placebo (ITT, 4 g, PM 2, p=0.045): statistically significant decrease
- Self-Rated Contentment, treatment effects (ITT): statistically significant treatment by day interaction
- Choice Reaction Time, treatment effects (ITT, p=0.011): statistically significant treatment by day interaction
- Spatial Working Memory Sensitivity Index, treatment effects (ITT, p=0.015): statistically significant treatment by day interaction
- Quality of Working Memory, treatment effects (ITT, p=0.019): statistically significant treatment by day interaction
- Numeric Working Memory Sensitivity Index, treatment effects (ITT, p=0.089): statistical trend for a treatment by day interaction
- Continuity of Attention, effect of treatment (Study Per Protocol): no statistically significant effect of treatment
- Digit Vigilance Targets Detected, treatment effects (Study Per Protocol, p=0.040): statistically significant treatment by time-point interaction
- Power of Attention, effect of treatment (Study Per-Protocol): no statistically significant effect of treatment
- Quality of Episodic Secondary Memory, effect of treatment (Study Per-Protocol): no statistically significant effects of treatment
- Self-Rated Alertness, effect of treatment (Study Per-Protocol): no statistically significant effect of treatment
- Self-Rated Calmness, effect of treatment (Study Per-Protocol): no statistically significant effect of treatment
- Self-Rated Contentment, LS mean difference to placebo (Study Per-Protocol): no statistically significant effects
- Speed of Memory and contributing subtasks, effect of treatment (Study Per-Protocol): no statistical significant effects of treatment
- Immediate Word Recall Accuracy, LS mean difference to placebo (Study Per-Protocol, 1 g, AM 1, p=0.038): statistically significant decreases
- Immediate Word Recall Accuracy, LS mean difference to placebo (Study Per-Protocol, 1 g, AM 2, p=0.048): statistically significant decreases
- Immediate Word Recall Accuracy, LS mean difference to placebo (Study Per-Protocol, 1 g, Day 14, p=0.024): statistically significant decreases
- Immediate Word Recall Accuracy, LS mean difference to placebo (Study Per-Protocol, 1 g, Day 14 at PM 2, p=0.019): statistically significant decreases
- Word Recognition Sensitivity Index, LS mean difference to placebo (Study Per-Protocol, 1 g, Day 28, p=0.027): statistically significant decreases
- Picture Recognition Sensitivity Index, LS mean difference versus placebo (Study Per-Protocol, 1 g, Day 28 at AM 2, p=0.020): statistically significant decreases
- Picture Recognition Sensitivity Index, LS mean difference versus placebo (Study Per-Protocol, 1 g, Day 28 at PM 2, p=0.026): statistically significant decreases
- Quality of Episodic Secondary Memory, LS mean difference versus placebo (Study Per-Protocol, 1 g, p=0.043): statistically significant decreases
- Immediate Word Recall Accuracy, LS mean difference to placebo (Study Per-Protocol, 2 g, AM 1, p=0.029): statistically significant decreases
- Immediate Word Recall Accuracy, LS mean difference to placebo (Study Per-Protocol, 2 g, Day 28, p=0.017): statistically significant decreases
- Self-Rated Alertness, LS mean difference versus placebo (Study Per-Protocol, 2 g, Day 28, p=0.035): statistically significant decrease in ratings
- Immediate Word Recall Accuracy, LS mean difference to placebo (Study Per-Protocol, 2 g, Day 28 at AM 1, p=0.006): statistically significant decreases
- Self-Rated Alertness, LS mean difference versus placebo (Study Per-Protocol, 2 g, Day 28 at AM 2, p=0.033): statistically significant decrease in ratings
- Quality of Episodic Secondary Memory, LS mean difference versus placebo (Study Per-Protocol, 2 g, p=0.036): statistically significant decreases
- Word Recognition Sensitivity Index, LS mean difference to placebo (Study Per-Protocol, 4 g, Day 42, p=0.038): statistically significant decreases
- Self-Rated Calmness, LS mean difference versus placebo (Study Per-Protocol, 4 g, Day 42 at PM 1, p=0.071): statistical trend for an increase in ratings
- Self-Rated Contentment, treatment effects (Study Per-Protocol): statistically significant treatment by day interaction
- Choice Reaction Time, treatment effects (Study Per-Protocol, p=0.013): statistically significant treatment by day interaction
- Spatial Working Memory Sensitivity Index, treatment effects (Study Per-Protocol, p=0.014): statistically significant treatment by day interaction
- Quality of Working Memory, treatment effects (Study Per-Protocol, p=0.021): statistically significant treatment by day interaction
- Self-Rated Calmness versus corresponding placebo (post-hoc analysis): no differences between active treatment and placebo
- Self-rated Alertness versus corresponding placebo [1]: decreases in ratings
- Self-rated Contentment versus corresponding placebo [1]: decreases in ratings
- Power of Attention versus corresponding placebo (post-hoc analysis, 4 g, Day 42): overall benefit versus the corresponding placebo
- Spatial Working Memory Sensitivity Index versus corresponding placebo (post-hoc analysis, 4 g, Day 42, Study PP Population): overall benefit
- Simple Reaction Time versus corresponding placebo (post-hoc analysis, 4 g, PM 2 collapsed across days and several time-points on Days 14 and 42): improvements in performance
- Choice Reaction Time versus corresponding placebo (post-hoc analysis, 4 g, all study days): overall benefit versus corresponding placebo
- subtask measures of Speed of Memory versus corresponding placebo (post-hoc analysis, mostly for 1 g): some signs of improvement in performance
